In ChEMBL document CHEMBL1909493, “Synthesis and biological evaluation of novel analogues of the pan class I phosphatidylinositol 3-kinase (PI3K) inhibitor 2-(difluoromethyl)-1-[4,6-di(4-morpholinyl)-1,3,5-triazin-2-yl]-1H-benzimidazole (ZSTK474)” (J Med Chem, 2011):
≈ marks a conversion by molar mass, not a printed value.

Legend:
[1] = molecular target: Phosphatidylinositol 4,5-bisphosphate 3-kinase catalytic subunit alpha isoform (Mus musculus, UniProt P42337); test: Inhibition of mouse recombinant PI3K p110alpha expressed in Sf21 insect cells using phosphatidylinositol as substrate after 1 hr by phosphoimaging
Sequence of Phosphatidylinositol 4,5-bisphosphate 3-kinase catalytic subunit alpha isoform (Mus musculus, UniProt P42337) (P42337 whole entry, canonical isoform): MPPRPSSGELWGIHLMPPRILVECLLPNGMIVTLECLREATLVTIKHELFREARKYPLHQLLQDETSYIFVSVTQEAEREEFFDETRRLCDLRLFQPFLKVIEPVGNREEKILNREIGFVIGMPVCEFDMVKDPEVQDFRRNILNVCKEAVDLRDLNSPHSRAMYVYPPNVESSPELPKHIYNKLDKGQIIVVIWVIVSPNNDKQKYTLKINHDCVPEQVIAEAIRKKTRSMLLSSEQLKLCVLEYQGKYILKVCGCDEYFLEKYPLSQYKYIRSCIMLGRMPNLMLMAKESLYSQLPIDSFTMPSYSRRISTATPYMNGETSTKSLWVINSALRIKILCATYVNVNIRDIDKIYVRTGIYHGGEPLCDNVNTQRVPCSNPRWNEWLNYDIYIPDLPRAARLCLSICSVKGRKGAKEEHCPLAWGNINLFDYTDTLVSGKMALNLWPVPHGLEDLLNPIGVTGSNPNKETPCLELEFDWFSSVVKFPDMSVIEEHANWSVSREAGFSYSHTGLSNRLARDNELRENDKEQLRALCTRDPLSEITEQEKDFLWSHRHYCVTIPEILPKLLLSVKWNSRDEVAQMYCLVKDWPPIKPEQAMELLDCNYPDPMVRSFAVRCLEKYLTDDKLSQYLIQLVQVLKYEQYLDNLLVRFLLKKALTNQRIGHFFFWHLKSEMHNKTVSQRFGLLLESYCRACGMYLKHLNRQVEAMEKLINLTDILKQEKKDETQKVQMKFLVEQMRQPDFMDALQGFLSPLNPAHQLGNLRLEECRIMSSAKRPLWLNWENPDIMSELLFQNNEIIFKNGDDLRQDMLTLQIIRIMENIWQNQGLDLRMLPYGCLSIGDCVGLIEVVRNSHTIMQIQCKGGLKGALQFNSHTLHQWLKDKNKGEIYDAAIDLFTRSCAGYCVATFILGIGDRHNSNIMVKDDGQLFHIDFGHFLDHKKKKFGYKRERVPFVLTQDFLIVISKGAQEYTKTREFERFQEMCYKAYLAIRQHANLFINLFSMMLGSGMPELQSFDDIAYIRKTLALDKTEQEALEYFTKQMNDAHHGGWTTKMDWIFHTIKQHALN

cells [2] = settings: Homo sapiens, NZOV9
[3] = molecular target: Phosphatidylinositol 4,5-bisphosphate 3-kinase catalytic subunit beta isoform (Homo sapiens, UniProt P42338); test: Inhibition of human recombinant PI3K p110beta expressed in Sf21 insect cells using phosphatidylinositol as substrate after 1 hr by phosphoimaging
Sequence of Phosphatidylinositol 4,5-bisphosphate 3-kinase catalytic subunit beta isoform (P42338 whole entry, canonical isoform): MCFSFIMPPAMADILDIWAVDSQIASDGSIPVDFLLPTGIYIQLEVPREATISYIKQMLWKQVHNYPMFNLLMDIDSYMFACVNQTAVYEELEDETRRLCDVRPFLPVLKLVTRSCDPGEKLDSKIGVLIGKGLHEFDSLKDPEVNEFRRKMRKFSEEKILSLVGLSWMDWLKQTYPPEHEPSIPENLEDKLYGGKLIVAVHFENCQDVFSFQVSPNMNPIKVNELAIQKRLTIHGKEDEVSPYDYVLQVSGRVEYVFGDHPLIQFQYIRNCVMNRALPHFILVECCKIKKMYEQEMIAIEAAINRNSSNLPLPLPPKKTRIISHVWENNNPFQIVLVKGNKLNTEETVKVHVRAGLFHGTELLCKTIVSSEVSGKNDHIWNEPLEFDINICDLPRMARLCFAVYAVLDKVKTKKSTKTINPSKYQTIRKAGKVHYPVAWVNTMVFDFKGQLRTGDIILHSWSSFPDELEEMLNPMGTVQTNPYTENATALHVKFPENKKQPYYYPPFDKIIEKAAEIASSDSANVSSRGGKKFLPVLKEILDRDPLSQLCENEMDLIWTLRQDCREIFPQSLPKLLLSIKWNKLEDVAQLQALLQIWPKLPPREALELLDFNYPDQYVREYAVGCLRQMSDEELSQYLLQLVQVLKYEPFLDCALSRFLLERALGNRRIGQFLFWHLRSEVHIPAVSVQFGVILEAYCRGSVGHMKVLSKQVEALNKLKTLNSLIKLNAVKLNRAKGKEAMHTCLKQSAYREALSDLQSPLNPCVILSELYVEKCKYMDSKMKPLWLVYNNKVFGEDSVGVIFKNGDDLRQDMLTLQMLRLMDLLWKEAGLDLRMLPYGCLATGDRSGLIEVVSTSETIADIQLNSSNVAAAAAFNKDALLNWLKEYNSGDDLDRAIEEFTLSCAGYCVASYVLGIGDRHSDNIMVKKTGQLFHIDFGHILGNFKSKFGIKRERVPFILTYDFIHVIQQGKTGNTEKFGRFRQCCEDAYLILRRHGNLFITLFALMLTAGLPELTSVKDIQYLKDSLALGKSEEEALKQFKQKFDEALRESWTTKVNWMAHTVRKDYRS

[4] = Inhibition of bovine recombinant PI3K p110delta expressed in Sf21 insect cells using phosphatidylinositol as substrate after 1 hr by phosphoimaging; parameters: species or system Bos taurus
cells [5] = settings: Homo sapiens, NZB5
[6] = Aqueous solubility of the compound in water after 15 mins by HPLC analysis; settings: aqueous medium
cells [7] = settings: Homo sapiens, HCT-116
[8] = molecular target: T1, Phosphatidylinositol 4,5-bisphosphate 3-kinase catalytic subunit alpha isoform (Homo sapiens, UniProt P42336); test: Inhibition of PIK3CA-mediated cell signaling in PTEN-deficient human U87MG cells assessed as inhibition of insulin-induced pAkt/PKB phosphorylation at Ser473 treated for 15 mins before insulin challenge measured after 5 mins by immunoblotting; assay type: cell-based, U-87MG ATCC
T1 sequence (P42336 whole entry, canonical isoform): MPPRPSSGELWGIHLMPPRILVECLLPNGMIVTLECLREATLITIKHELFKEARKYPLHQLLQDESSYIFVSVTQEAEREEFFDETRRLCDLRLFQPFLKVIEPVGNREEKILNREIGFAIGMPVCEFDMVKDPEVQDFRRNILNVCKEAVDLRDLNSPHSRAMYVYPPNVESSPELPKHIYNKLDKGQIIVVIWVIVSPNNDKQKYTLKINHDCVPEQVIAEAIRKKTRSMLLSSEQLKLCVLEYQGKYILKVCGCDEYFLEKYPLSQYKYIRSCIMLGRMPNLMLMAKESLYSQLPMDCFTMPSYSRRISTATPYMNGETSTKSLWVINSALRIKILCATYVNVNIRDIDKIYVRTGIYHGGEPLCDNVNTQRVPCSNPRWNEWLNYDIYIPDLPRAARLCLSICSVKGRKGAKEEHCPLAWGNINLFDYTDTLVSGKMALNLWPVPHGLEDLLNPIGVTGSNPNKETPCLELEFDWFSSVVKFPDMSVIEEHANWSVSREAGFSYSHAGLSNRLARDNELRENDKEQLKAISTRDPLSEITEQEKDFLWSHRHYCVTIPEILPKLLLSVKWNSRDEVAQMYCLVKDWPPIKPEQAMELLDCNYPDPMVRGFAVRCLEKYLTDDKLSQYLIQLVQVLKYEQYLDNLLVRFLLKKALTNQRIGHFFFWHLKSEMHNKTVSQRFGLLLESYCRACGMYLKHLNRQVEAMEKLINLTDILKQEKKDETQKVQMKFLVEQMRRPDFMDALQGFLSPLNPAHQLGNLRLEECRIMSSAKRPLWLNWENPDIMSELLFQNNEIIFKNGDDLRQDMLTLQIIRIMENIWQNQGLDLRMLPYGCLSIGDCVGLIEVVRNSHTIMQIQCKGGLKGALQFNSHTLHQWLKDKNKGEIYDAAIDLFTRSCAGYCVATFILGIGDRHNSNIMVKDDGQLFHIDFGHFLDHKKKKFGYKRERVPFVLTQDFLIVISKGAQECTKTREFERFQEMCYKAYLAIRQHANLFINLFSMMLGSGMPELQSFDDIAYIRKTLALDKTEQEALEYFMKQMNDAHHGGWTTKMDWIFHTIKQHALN

[9] = molecular target: T1, Phosphatidylinositol 4,5-bisphosphate 3-kinase catalytic subunit alpha isoform; test: Inhibition of PIK3CA-mediated cell signaling in PTEN-deficient human U87MG cells assessed as inhibition of insulin-induced pAkt/PKB phosphorylation at Thr308 treated for 15 mins before insulin challenge measured after 5 mins by immunoblotting; assay type: cell-based, U-87MG ATCC
cells [10] = settings: Homo sapiens, HCT-116; remark: listed apart in the source

Row | Structure (SMILES) | IC50 [1] | IC50 (cells [2]) | IC50 [3] | IC50 (cells [5]) | solubility at […] [6] | IC50 (cells [7]) | IC50 [8] | IC50 [9] | IC50 (cells [10]) | IC50 [4]
1 | CCCOc1cccc2c1nc(C(F)F)n2-c1nc(N2CCOCC2)nc(N2CCOCC2)n1 | 16 nM | 50 nM | 518 nM | 70 nM |  |  |  |  |  | 95 nM
2 | c1ccc2c(c1)ncn2-c1nc(N2CCOCC2)nc(N2CCOCC2)n1 | 265 nM | 300 nM | 1540 nM | 1500 nM |  |  |  |  |  | 142 nM
3 | Cc1nc2ccccc2n1-c1nc(N2CCOCC2)nc(N2CCOCC2)n1 | 143 nM | 600 nM | 289 nM | 280 nM |  |  |  |  |  | 35 nM
4 | FC(F)(F)c1nc2ccccc2n1-c1nc(N2CCOCC2)nc(N2CCOCC2)n1 | 202 nM | 700 nM | 461 nM | 900 nM |  |  |  |  |  | 70 nM
5 | OCc1nc2ccccc2n1-c1nc(N2CCOCC2)nc(N2CCOCC2)n1 | > 1000 nM | 5500 nM | > 1000 nM | 750 nM |  |  |  |  |  | 5470 nM
6 | CS(=O)(=O)Cc1nc2ccccc2n1-c1nc(N2CCOCC2)nc(N2CCOCC2)n1 | 480 nM | 440 nM | 250 nM | 250 nM |  |  |  |  |  | 54 nM
7 | CSc1nc2ccccc2n1-c1nc(N2CCOCC2)nc(N2CCOCC2)n1 | 2900 nM | 200 nM | > 1000 nM | 200 nM |  |  |  |  |  | 270 nM
8 | CS(=O)(=O)c1nc2ccccc2n1-c1nc(N2CCOCC2)nc(N2CCOCC2)n1 | 203 nM | 2000 nM | 383 nM | 10000 nM |  |  |  |  |  | 76 nM
9 | CCCCOc1cccc2c1nc(C(F)F)n2-c1nc(N2CCOCC2)nc(N2CCOCC2)n1 |  | 210 nM | 2400 nM | 230 nM |  |  |  |  |  | 156 nM
10 | CC(C)Oc1cccc2c1nc(C(F)F)n2-c1nc(N2CCOCC2)nc(N2CCOCC2)n1 | 364 nM | 280 nM | 2100 nM | 70 nM |  |  |  |  |  | 430 nM
11 | CS(=O)(=O)Oc1cccc2c1nc(C(F)F)n2-c1nc(N2CCOCC2)nc(N2CCOCC2)n1 | 294 nM | 130 nM | 570 nM | 170 nM |  |  |  |  |  | 158 nM
12 | CNc1cccc2c1nc(C(F)F)n2-c1nc(N2CCOCC2)nc(N2CCOCC2)n1 | 210 nM | 260 nM | 480 nM | 110 nM |  |  |  |  |  | 67 nM
13 | CN(C)c1cccc2c1nc(C(F)F)n2-c1nc(N2CCOCC2)nc(N2CCOCC2)n1 | 5400 nM | 2540 nM | > 1000 nM | 60 nM |  |  |  |  |  | 539 nM
14 | COC(=O)c1cccc2c1nc(C(F)F)n2-c1nc(N2CCOCC2)nc(N2CCOCC2)n1 | 9.3 nM | 470 nM | 310 nM | 2800 nM |  |  |  |  |  | 65 nM
15 | NC(=O)c1cccc2c1nc(C(F)F)n2-c1nc(N2CCOCC2)nc(N2CCOCC2)n1 | > 1000 nM |  | > 1000 nM | 760 nM |  |  |  |  |  | 1000 nM
16 | CNC(=O)c1cccc2c1nc(C(F)F)n2-c1nc(N2CCOCC2)nc(N2CCOCC2)n1 | 296 nM | 50 nM | > 1000 nM | 480 nM |  |  |  |  |  | 1000 nM
17 | CN(C)C(=O)c1cccc2c1nc(C(F)F)n2-c1nc(N2CCOCC2)nc(N2CCOCC2)n1 | > 1000 nM | 240 nM | > 1000 nM | 730 nM |  |  |  |  |  | > 1000 nM
18 | N#Cc1cccc2c1nc(C(F)F)n2-c1nc(N2CCOCC2)nc(N2CCOCC2)n1 | 61 nM | > 20000 nM | > 1000 nM | > 20000 nM |  |  |  |  |  | 66 nM
19 | COc1ccc2c(nc(C(F)F)n2-c2nc(N3CCOCC3)nc(N3CCOCC3)n2)c1OC | 335 nM | 36 nM | 801 nM | 20 nM |  |  |  |  |  | 258 nM
20 | COc1cncc2c1nc(C(F)F)n2-c1nc(N2CCOCC2)nc(N2CCOCC2)n1 | 1290 nM | 2600 nM | 1030 nM | 5600 nM |  |  |  |  |  | 1600 nM
21 | CS(=O)(=O)O.Cn1c(=O)n(-c2ccc(C(C)(C)C#N)cc2)c2c3cc(-c4cnc5ccccc5c4)ccc3ncc21 |  |  |  |  | 11.3 µg/mL |  |  |  |  | 
22 | COc1cc(N)cc2c1nc(C(F)F)n2-c1nc(N2CCOCC2)nc(N2CCOCC2)n1.CS(=O)(=O)O |  |  |  |  | 4.2 µg/mL |  |  |  |  | 

The next lines start with results.

Row | IC50 [1] | IC50 (cells [2]) | IC50 [3] | IC50 (cells [5]) | solubility at […] [6] | IC50 (cells [7]) | IC50 [8] | IC50 [9] | IC50 (cells [10]) | Structure (SMILES) | IC50 [4]
23 | 34 nM | 350 nM | 53 nM | 390 nM |  |  |  |  |  | FCc1nc2ccccc2n1-c1nc(N2CCOCC2)nc(N2CCOCC2)n1 | 13 nM
24 | 170 nM | 86 nM | 39 nM | 83 nM |  |  |  |  |  | CSCc1nc2ccccc2n1-c1nc(N2CCOCC2)nc(N2CCOCC2)n1 | 41 nM
25 | 590 nM | 490 nM | 230 nM | 400 nM |  |  |  |  |  | C[S+]([O-])Cc1nc2ccccc2n1-c1nc(N2CCOCC2)nc(N2CCOCC2)n1 (centres undefined) | 35 nM
26 | 2.7 nM | 10 nM | 25 nM | 50 nM | 0.08 µg/mL (≈ 0.179 µM) | 25 nM | 55 nM | 28 nM | 37 nM | COc1cccc2c1nc(C(F)F)n2-c1nc(N2CCOCC2)nc(N2CCOCC2)n1 | 3.9 nM
27 | 2.7 nM | 40 nM | 104 nM | 70 nM |  |  |  |  |  | CCOc1cccc2c1nc(C(F)F)n2-c1nc(N2CCOCC2)nc(N2CCOCC2)n1 | 5.5 nM
28 | 4.8 nM | 80 nM | 41 nM | 50 nM |  |  |  |  |  | Nc1cccc2c1nc(C(F)F)n2-c1nc(N2CCOCC2)nc(N2CCOCC2)n1 | 0.85 nM
29 | 27 nM | 170 nM | 68 nM | 300 nM |  |  |  |  |  | OCc1cccc2c1nc(C(F)F)n2-c1nc(N2CCOCC2)nc(N2CCOCC2)n1 | 12 nM
30 | 550 nM | 40 nM | 47 nM | 130 nM |  |  |  |  |  | FC(F)c1nc2c3c(ccc2n1-c1nc(N2CCOCC2)nc(N2CCOCC2)n1)OCO3 | 39 nM
31 |  | 11 nM | 94 nM |  |  |  |  |  |  | COc1c(O)ccc2c1nc(C(F)F)n2-c1nc(N2CCOCC2)nc(N2CCOCC2)n1 | 1.8 nM
32 | 58 nM | 59 nM | 118 nM | 95 nM |  |  |  |  |  | COc1cc(OC)c2nc(C(F)F)n(-c3nc(N4CCOCC4)nc(N4CCOCC4)n3)c2c1 | 12.5 nM
33 | 2 nM | 16 nM | 0.91 nM | 390 nM |  |  |  |  |  | CNc1cc(OC)c2nc(C(F)F)n(-c3nc(N4CCOCC4)nc(N4CCOCC4)n3)c2c1 | 0.52 nM
34 | 8 nM | 150 nM | 18.5 nM | 130 nM |  |  |  |  |  | COc1cc(N(C)C)cc2c1nc(C(F)F)n2-c1nc(N2CCOCC2)nc(N2CCOCC2)n1 | 6.8 nM
35 | 30 nM | 260 nM | 72 nM | 120 nM |  |  |  |  |  | FC(F)c1nc2ccccc2n1-c1nc(N2CCOCC2)cc(N2CCOCC2)n1 | 10 nM
36 | 1.5 nM |  | 0.81 nM | 100 nM |  |  |  |  |  | Oc1cccc2c1nc(C(F)F)n2-c1nc(N2CCOCC2)cc(N2CCOCC2)n1 | 0.27 nM
37 | 5.1 nM | 30 nM | 35 nM | 60 nM |  |  |  |  |  | COc1cccc2c1nc(C(F)F)n2-c1nc(N2CCOCC2)cc(N2CCOCC2)n1 | 18 nM
38 | 88 nM | 300 nM | 170 nM |  |  |  |  |  |  | FC(F)c1nc2ccccc2n1-c1cc(N2CCOCC2)nc(N2CCOCC2)n1 | 13 nM
39 | 4 nM |  | 40 nM |  |  |  |  |  |  | COc1cccc2c1nc(C(F)F)n2-c1cc(N2CCOCC2)nc(N2CCOCC2)n1 | 14 nM
